Test results published in US8614021B2, “Agents for enhanced charge transport across microbial membranes” (The United States of America as represented by the …, priority 2010, dated 2013).
Entries after “also recorded” stand apart in the source; their conditions may differ. Where two headings read alike, the source gives them in different places.

Experiments:
yeast = assay: Yeast microbial fuel cell (U-tube MFC) voltage production; type: cell-based; details: for Maximum voltage (Vmax): across a 10 kΩ resistor
Text: Two-chamber MFCs were constructed in a similar fashion as previously described (Milliken, C. E.; May, H. D. Appl. Microbiol. Biotechnol. 2007, 73, 1180-1189; Sund, C. J.; Wong, M. S.; Sumner, J. J. Biosens. Bioelectron. 2009, 24, 3144-3147; Sund, C. J.; McMasters, S.; Crittenden, S. R.; Harrell, L. E.; Sumner, J. J. Appl. Microbiol. Biotechnol. 2007, 76, 561-568) with some modifications and pictured in FIG. 9. The anodes and cathodes consisted of carbon felt (100% Activated Carbon Fiber Filter, CarboPur Technologies, Montreal, Canada), ⅛ inch thick, cut to the dimensions of 5 cm by 1 cm. The carbon felts were attached to 0.25 mm diameter titanium wires (AlfaAesar, Ward Hill, Mass.) as electrical leads. A new piece of Nafion® 117 (DuPont, Wilmington, Del., USA) was used for each fuel cell. Anode wires were passed through silicone rubber septa used to seal the anode compartment following inoculation while the cathode compartment was covered with a loose-fitting glass vial. Each fuel cell compartment was filled with 20 ml of media and autoclaved. Inoculation of MFCs consisted of addition of 300 μL of stained (25 μM COE) or unstained yeast stock solution (O.D.=1.75). Methylene blue was added separately as a stock solution (0.1% by weight, 2.67 mM) for the positive control runs employing this mediator. MFCs were incubated in an aerobic 30° C. incubator and the potential across a 10 kΩ resistor was measured and recorded every 10 seconds via a DAQPad-6016 and a custom LabView® VI (National Instruments, Austin, Tex., USA).
A U-tube type MFC (Milliken, C. E.; May, H. D. Appl. Microbiol. Biotechnol. 2007, 73, 1180-1189; Sund, C. J.; Wong, M. S.; Sumner, J. J. Biosens. Bioelectron. 2009, 24, 3144-3147; Sund, C. J.; McMasters, S.; Crittenden, S. R.; Harrell, L. E.; Sumner, J. J. Appl. Microbiol. Biotechnol. 2007, 76, 561-568) (FIG. 9) was employed to test and compare the performance of a series of yeast MFCs employing nM concentrations of DSSN+ and DSBN+ to the performance of a series of negative controls with no external mediator and a series of positive controls employing the common electron transport mediator methylene blue in μM concentrations. The details of MFC construction, preparation, and evaluation are discussed in detail in the section entitled “Microbial fuel cell preparation and assembly.” MFC performance was evaluated in terms of voltage instead of current. Voltage readings were obtained as a function of current across a 10 kΩ resistor.

[1] = Cyclic voltammetry blocking experiment: transmembrane electron transport across sBLMs to aq. ferricyanide; details: for transmembrane electron transport across sBLM (current in CV): 2 mol % in DMPC and DPPC sBLMs, aq. ferricyanide, 200 mV/s scan rate
Description: Bilayer membranes supported on glassy carbon electrodes were prepared according to a modified literature procedure (Huang, W.; Zhang, Z.; Han, X.; Tang, J.; Wang, J.; Dong, S.; Wang, E. Biophys. J. 2002, 83, 3245-3255; Wu, Z.; Tang, J.; Cheng, Z.; Yang, X.; Wang, E. Anal. Chem. 2000, 72, 6030-6033). […] Electrode surface modification was performed by applying a constant 1.5 V bias for four minutes to a freshly polished glassy carbon electrode submerged in a 0.1 M aq. NaOH solution. Upon completion of this process the electrode was dried via argon steam followed by deposition of a 5 μL aliquot of the desired DMPC membrane forming solution to the electrode surface. The solvent was allowed to evaporate and electrode was immediately placed into phosphate buffer (pH 7.4) to allow the bilayer to assemble over a 0.5 hour time period. The working electrode containing the supported bilayer lipid membrane (sBLM) was then used directly.
Cyclic voltammograms were collected at scan rates of 50-200 mV/sec using a standard three-electrode setup that employed a Pt wire counter electrode, a Ag/AgCl reference electrode and a glassy carbon working electrode (modified or unmodified). All runs were performed in aq. 0.5 M KCl electrolyte solution containing 1 mM potassium ferricyanide (the active redox and indicator species). Oxygen was removed from the system via bubbling Ar through the solution for several minutes prior to data collection. The working electrode was freshly polished between each run prior to voltammogram collection or sBLM formation followed by voltammogram collection. Data was collected within the range of 0-0.4 V potentials relative to Ag/AgCl.
OPVs within a saturated alkane thiol monolayer can facilitate charge tunneling from a metallic electrode to a tethered redox species (Dudek, S. P.; Sikes, H. D.; Chidsey, C. E. D. J. Am. Chem. Soc. 2001, 123, 8033-8038; Sikes, H. D.; Smalley, J. F.; Dudek, S. P.; Cook, A. R.; Newton, M. D.; Chidsey, C. E. D.; Feldberg, S. W. Science. 2001, 291, 1519-1523). A variation of this approach was used in which supported bilayer membranes (sBLM) containing DSSN+, DSBN+ and other control molecules were prepared on the surface of a glassy carbon electrode surface. The sBLM-modified electrodes were then employed in a series of ‘blocking’ experiments in which cyclic voltammetry was used to monitor the reversible […] of aqueous ferricyanide. The unmodified sBLM acts as an insulating layer between the working electrode and the solution containing ferricyanide thereby greatly suppressing the redox current (Wiegand, G.; Arribas-Layton, N.; Hillebrandt, H.; Sackmann, E.; Wagner, P. J. Phys. Chem. B. 2002, 106, 4245-4254; Żebrowska, A.; Krysiński, P.; ? otowski, Z. Bioelectrochemistry. 2002, 56, 179-184). […]

[2] = UV-Vis absorbance and PL spectroscopy of oligoelectrolytes embedded in lipid bilayers (DMPC vesicles); details: for εmax / λabs / λem / η: lipid bilayer; for blue (hypsochromic) shift in λem / red (bathochromic) shift in λabs: lipid bilayer (DMPC vesicle membranes) compared to water / pH 7.3 HEPES buffer; for η: relative to a fluorescein standard at pH 12
Description: In order to prepare a typical membrane modified vesicle sample by sonication a methanolic DMPC solution containing a desired mol % DSBN+ was prepared (a typical solution is 1-5 mole % DSBN+ based on 50 micro-moles of DMPC). The methanol was slowly removed by argon flow while the solution was held at a constant 32-38° C. followed by vacuum oven drying at room temperature until dried to a constant weight. Next, enough H2O or pH 7 HEPES buffer was added to obtain a solution with a concentration of ˜1-20 mg/mL depending upon application (imaging or photoluminescence measurement for example). This solution was then sonicated at 40-50° C. for 0.5-7 hours, typically until the solution had lost most of its turbidity. This generates multi-lamellar vesicles. Uni-lamellar vesicles with diameters of ˜450 nm (with a somewhat broad size distribution based on cryo-TEM images) were formed as the resulting solution was filtered using 0.45 μm pore size syringe filters to yield a slightly turbid solution that must be further diluted to clarity with water or buffer in order to collect UV absorbance or photoluminescence spectra.
Efforts to modify the vesicle membranes with DSBN+ and DSSN+ followed modified literature procedures (Lin, A. J.; Slack, N. L.; Ahmad, A.; George, C. X.; Samuel, C. E.; Safinya, C. R. Biophys. J. 2003, 84, 3307-3316). First, a lipid stock solution containing the desired fraction of either DSSN+ or DSBN+, typically 1-5 mol % relative to lipid, was prepared in methanol. This lipid/COE stock solution was then heated and held above the transition temperature of the lipid (23° C. and 41° C. for DMPC and DPPC, respectively) as the solvent was removed via Argon flushing, followed by vacuum drying to a constant weight. The resulting lipid/COE solid was then suspended in pH=7.3 HEPES buffer to the desired concentration (1-10 mg/mL). Multi-lamellar vesicles were then formed by self-assembly upon sonication of the resulting solution. Uni-lamellar vesicles were prepared by filtration (using 0.45 or 0.2 μm pore size syringe filters) or by extrusion (Olson, F.; Hunt, C. A.; Szoka, F. C.; Vail, W. J.; Papahadjopoulos, D. Biochim. Biophys. Acta. 1979, 557, 9-23; Socaciu, C.; Bojarski, P.; Aberle, L.; Diehl, H. A. Biophys. Chem. 2002, 99, 1-15; Szoka, F.; Olson, F.; Heath, T.; Vail, W.; Mayhew, E.; Papahadjopoulos, D. Biochim. Biophys. Acta. 1980, 601, 559-571).

[3] = Cyclic voltammetry, oxidation of the oligoelectrolytes (current/potential curves); type: physicochemical; details: vs. Ag/AgCl, 200 mV/s scan rate
[4] = UV-Vis absorption and photoluminescence (PL) spectroscopy in solvents of varying polarity; details: for η (quantum efficiency): relative to a fluorescein standard at pH 12
Description: General photophysical and solvatochromatic features of the neutral (DSSN, DSBN) and charged (DSSN+, DSBN+) versions of each chromophore were probed by using UV-Vis absorption and photoluminescence (PL) spectroscopies.

Baker's yeast = assay: Yeast cell staining, confocal/epi-fluorescence imaging; type: cell-based; details: for accumulation within cell membranes (fluorescence images): 100 μM, 1 hour of shaking, excitation 488 nm
Description: Stock solutions of DSSN+ and DSBN+ (1-5 mM, typically 5 mL) were prepared in pH 7.3 phosphate buffer. […] Cultures were never allowed to exceed an optical density of 6. In a typical cell staining run a 1 mL sample was transferred to 1.5 mL Eppendorf tube and the growth media was removed by centrifugation of cells followed by decanting of the growth media. The cells were then re-suspended in phosphate buffer and an appropriate volume of oligoelectrolyte stock solution was added to achieve a 10-100 μM concentration of DSSN+ or DSBN+. The cells were then shaken lightly for 10-180 min at room temperature. The cells can then be imaged directly or following buffer exchange via centrifugation and cell re-suspension. In an alternate procedure, as is the same staining (membrane incorporation) procedure performed with MFC inoculation samples, the cells are simply stained (by addition of COE stock solutions prepared in growth media to culture samples) and imaged directly in the original growth media. […] Sample preparation is completed by depositing a ˜3-6 μL aliquot of stained cell solution onto a traditional slide followed by a cover slip (in this case the slide is inverted and placed over a water or oil immersion objective interfaced with either a Nikon or Leica confocal fluorescence microscope). […]
FIG. 8 consists of two sets of confocal microscopy fluorescence images of Baker's yeast, each stained and imaged in a 100 μM solution of DSSN+ (FIG. 8A) or DSBN+ (FIG. 8B) after 1 hour of shaking without exchanging the staining media.
The ability of DSBN+ and DSSN+ to be passed on to or exist within cell membranes of subsequent yeast generations born over the course of MFC operation was also investigated. […] Cells from each of these aliquots were imaged using a confocal microscope in epi-fluorescence mode and brightfield mode. […] FIG. 11B is an epi-fluorescence and brightfield image (inset, lower left) of a small group of yeast cells removed from the same MFC on the fourth day of operation.

[5] = DMSO; value abstracted from reference (Woo et al. JACS 2005); cited from earlier work

Structure (SMILES)	transmembrane electron transport across sBLM (current in CV) [1]	Maximum voltage (Vmax) (yeast; 190 nM) [mV]	εmax [2] [Lmol^−1cm^−1 × 10^−4]	λabs [2] [nm]	λem [2] [nm]	blue (hypsochromic) shift in λem [2] [nm]	red (bathochromic) shift in λabs [2] [nm]	η [2]	oxidation potential (Eox) [3] [V]	εmax (molar extinction coefficient at λmax) ([4]; DMSO) [Lmol^−1cm^−1 × 10^−4]	λabs ([4]; DMSO) [nm]	λem ([4]; DMSO) [nm]	η (quantum efficiency) ([4]; DMSO)	εmax (molar extinction coefficient at λmax) ([4]; water) [Lmol^−1cm^−1 × 10^−4]	λabs ([4]; water) [nm]	λem ([4]; water) [nm]	η (quantum efficiency) ([4]; water)	accumulation within cell membranes (fluorescence images) (Baker's yeast)	εmax (molar extinction coefficient at λmax) ([4]; THF) [Lmol^−1cm^−1 × 10^−4]	λabs ([4]; THF) [nm]	also measured
CN(C)c1ccc2nc3ccc(=[N+](C)C)cc-3sc2c1 [methylene blue, reference compound]																					Maximum voltage (Vmax) (yeast; 13 μM): ~40 mV
C[N+](C)(C)CCCCCCN(CCCCCC[N+](C)(C)C)c1ccc(C=Cc2ccc(C=Cc3ccc(N(CCCCCC[N+](C)(C)C)CCCCCC[N+](C)(C)C)cc3)cc2)cc1.[I-].[I-].[I-].[I-] [DSBN+, 1,4-bis(4′-(N,N-bis(6″-(N,N,N-trimethylammonium)hexyl)amino)-styryl)benzene tetraiodide]	facilitate transmembrane electron transport; also recorded: display higher currents with respect to the control experiments	~55	4.8	422	474	92	16	0.59	~0.55	8.2	419	511	0.86	6.0	406	566	0.33	apparent preferential accumulation of the COEs within cell membranes			
ICCCCCCN(CCCCCCI)c1ccc(C=Cc2ccc(C=Cc3ccc(N(CCCCCCI)CCCCCCI)cc3)cc2)cc1 [DSBN, 1,4-bis(4′-(N,N-bis(6″-iodohexyl)amino)styryl)benzene]											419	516	0.81						8.5	410	λem ([4]; THF): 466 nm; η (quantum efficiency) ([4]; THF): 0.92; εmax (molar extinction coefficient at λmax) ([4]; toluene): 8.4 Lmol^−1cm^−1 × 10^−4; λabs ([4]; toluene): 410 nm; λem ([4]; toluene): 454 nm; η (quantum efficiency) ([4]; toluene): 0.98; εmax (molar extinction coefficient at λmax) [5]: 7.8 Lmol^−1cm^−1 × 10^−4
ICCCCCCN(CCCCCCI)c1ccc(C=Cc2ccc(C=Cc3ccc(C=Cc4ccc(N(CCCCCCI)CCCCCCI)cc4)cc3)cc2)cc1 [DSSN, 4,4′-bis(4′-(N,N-bis(6″-iodohexyl)amino)styryl)stilbene]										9.6	436	602	0.73						10.6	426	λem ([4]; THF): 526 nm; η (quantum efficiency) ([4]; THF): 0.89; εmax (molar extinction coefficient at λmax) ([4]; toluene): 10.7 Lmol^−1cm^−1 × 10^−4; λabs ([4]; toluene): 425 nm; λem ([4]; toluene): 476 nm; η (quantum efficiency) ([4]; toluene): 0.95
CCCCCCCCCCCCN(CCCCCCCCCCCC)CCCCCCCCCCCC [TDA, tridodecylamine, reference compound]	Little to no transmembrane electron transfer occurs; also recorded: featureless																				
C[N+](C)(C)CCCCCCN(CCCCCC[N+](C)(C)C)c1ccc(/C=C/c2ccc(/C=C/c3ccc(/C=C/c4ccc(N(CCCCCC[N+](C)(C)C)CCCCCC[N+](C)(C)C)cc4)cc3)cc2)cc1 [DSSN+, 4,4′-bis(4′-(N,N-bis(6″-(N,N,N-trimethylammonium)hexyl)amino)-styryl)stilbene tetraiodide]	facilitate transmembrane electron transport; also recorded: display higher currents with respect to the control experiments	~200	8.4	433	532	62	21	0.85	~0.55	9.8	435	596	0.71	6.6	412	594	0.06	apparent preferential accumulation of the COEs within cell membranes			current response of sBLMs containing DSSN+ instead of DSBN+ ([1]; 2 mol % in sBLMs): greater current response; increase in voltage production compared to methylene blue (yeast; 190 nM vs 13 μM methylene blue): ~5 fold; presence of mediator in later cell generations (Baker's yeast; yeast stained with 25 μM, removed from MFC on day 4 of operation): demonstrate the presence of this mediator in later cell generations
